Results reported in ChEMBL document CHEMBL1132323, “Anti-Helicobacter pylori agents. 3. 2-[(Arylalkyl)guanidino]-4-furylthiazoles” (1999).
In brackets after ≈: the same amount, converted by molar mass.

Legend:
[1] = molecular target: Histamine H2 receptor (Cavia porcellus) (UniProt P47747); assay: Histamine H2 receptor antagonism in isolated guinea pig right atrium at concentration of 1*10e-6 g/mL of histamine hydrochloride; format: functional, tissue-based; conditions: Cardiac atrium
Helicobacter pylori [2] = assay: Minimum inhibitory concentration that inhibited macroscopic colony growth of Helicobacter pylori; format: functional
Rattus norvegicus = assay: Inhibition of histamine stimulated gastric acid secretion in lumen perfused stomach of anesthetized rats at 1 mg/kg i.v. dose; format: functional; conditions: route intravenous
Bacteroides fragilis = assay: Antimicrobial activity against Bacteroides fragilis; format: functional
Clostridium perfringens [3] = assay: (§1) Antimicrobial activity against Clostridium perfringens; format: functional
Campylobacter jejuni = assay: Antimicrobial activity against Campylobacter jejuni; format: functional
Clostridioides difficile [4] = assay: (§2) Antimicrobial activity against Clostridium difficile; format: functional
Helicobacter pylori [5] = assay: Antimicrobial activity against Helicobacter pylori; format: functional
Neisseria gonorrhoeae = assay: Antimicrobial activity against Neisseria gonorrhoeae; format: functional
Neisseria meningitidis = assay: Antimicrobial activity against Neisseria meningitidis; format: functional
Clostridium perfringens [6] = assay: as §1; format: functional, organism-based
Clostridioides difficile [7] = assay: as §2; format: functional, organism-based

Histamine H2 receptor (Cavia porcellus), sequence (P47747 whole entry): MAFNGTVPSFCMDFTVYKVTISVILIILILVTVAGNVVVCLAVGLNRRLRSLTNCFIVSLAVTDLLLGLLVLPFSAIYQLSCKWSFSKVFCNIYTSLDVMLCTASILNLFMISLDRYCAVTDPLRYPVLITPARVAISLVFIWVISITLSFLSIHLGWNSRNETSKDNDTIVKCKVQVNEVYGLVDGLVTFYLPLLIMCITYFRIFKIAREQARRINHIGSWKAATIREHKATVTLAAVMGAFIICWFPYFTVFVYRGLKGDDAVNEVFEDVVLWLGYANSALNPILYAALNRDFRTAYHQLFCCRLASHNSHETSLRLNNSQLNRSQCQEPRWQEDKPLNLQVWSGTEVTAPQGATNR

Row | Compound | inhibition [1] [%] | MIC (Helicobacter pylori [2]) [µg/mL] | other results
1 | CCOc1ccccc1C/N=C(\N)Nc1nc(-c2ccc(CNC(C)=O)o2)cs1 | 42 |  | 
2 | COc1ccccc1CC/N=C(\N)Nc1nc(-c2cc(CNC(C)=O)co2)cs1 |  | 2.21 (≈ 5.34 µM) | 
3 | CC(=O)NCc1ccc(-c2csc(NC(=N)NCCc3ccco3)n2)o1 | 63 | 0.24 (≈ 0.643 µM) | inhibition in vivo at 1 mg/kg (Rattus norvegicus): 0%
4 | CC(=O)NCc1ccc(-c2csc(NC(=N)NCc3ccccc3O)n2)o1 |  | 5.8 (≈ 15 µM) | 
5 | CC1(C)S[C@@H]2[C@H](NC(=O)[C@H](N)c3ccc(O)cc3)C(=O)N2[C@H]1C(=O)O [AMOXICILLIN] |  |  | MIC (Bacteroides fragilis): 2.1 µg/mL (≈ 5.75 µM); MIC (Clostridium perfringens [3]): 0.027 µg/mL (≈ 0.0739 µM); MIC (Campylobacter jejuni): 2.2 µg/mL (≈ 6.02 µM); MIC (Clostridioides difficile [4]): 0.28 µg/mL (≈ 0.766 µM); MIC (Helicobacter pylori [5]): 0.021 µg/mL (≈ 0.0575 µM); MIC (Neisseria gonorrhoeae): 7.7 µg/mL (≈ 21.1 µM); MIC (Neisseria meningitidis): 0.056 µg/mL (≈ 0.153 µM)
6 | CC(=O)NCc1ccc(-c2csc(NC(=N)NCc3ccco3)n2)o1 | 46 |  | 
7 | CN/C(=N\CCSCc1nc[nH]c1C)NC#N [CIMETIDINE] |  | 1130 (≈ 4480 µM) | inhibition in vivo at 1 mg/kg (Rattus norvegicus): 53%
8 | CC(=O)NCc1ccc(-c2csc(NC(=N)NCCCc3ccccc3)n2)o1 | 40 |  | 
9 | CC(=O)NCc1ccc(-c2csc(NC(=N)NCCc3ccncc3)n2)o1 |  | 1.92 (≈ 4.99 µM) | 
10 | CC(=O)NCc1ccc(-c2csc(NC(=N)NCCc3cccs3)n2)o1 | 83 | 0.112 (≈ 0.288 µM) | inhibition in vivo at 1 mg/kg (Rattus norvegicus): 21%
11 | COc1ccccc1C/N=C(\N)Nc1nc(-c2ccc(CNC(C)=O)o2)cs1 | 26 |  | 
12 | (2,5-Dihydroxy-4,7-dioxo-[1,3,2]dioxabismepan-5-yl)-acetic acid |  | 18 | 
13 | COc1ccccc1/N=C(\N)Nc1nc(-c2ccc(CNC(C)=O)o2)cs1 |  | 0.24 (≈ 0.623 µM) | 
14 | COc1ccc(CC/N=C(\N)Nc2nc(-c3ccc(CNC(C)=O)o3)cs2)cc1 | 27 | 0.9 (≈ 2.18 µM) | inhibition in vivo at 1 mg/kg (Rattus norvegicus): 5%
15 | CC(=O)NCc1ccc(-c2csc(NC(=N)NCc3ccccc3)n2)o1 | 35 |  | 
16 | CC(=O)NCc1ccc(-c2csc(NC(=N)NCCc3ccccn3)n2)o1 | 0 | 0.73 (≈ 1.9 µM) | 
17 | COc1ccccc1CC/N=C(\N)Nc1nc(-c2cc(CNC(C)=O)c(C)o2)cs1 | 0 | 0.046 (≈ 0.108 µM) | MIC (Bacteroides fragilis): > 100 µg/mL; MIC (Clostridium perfringens [3]): > 100 µg/mL; MIC (Campylobacter jejuni): 23 µg/mL (≈ 53.8 µM); MIC (Clostridioides difficile [4]): > 100 µg/mL; MIC (Neisseria gonorrhoeae): > 100 µg/mL; MIC (Neisseria meningitidis): > 100 µg/mL
18 | CC(=O)NCc1ccc(-c2csc(NC(=N)NCCc3ccccc3N)n2)o1 |  | 1.01 (≈ 2.53 µM) | 

Row | Compound | inhibition [1] [%] | MIC (Helicobacter pylori [2]) [µg/mL] | other results
19 | CC[C@H]1OC(=O)[C@H](C)[C@@H](O[C@H]2C[C@@](C)(OC)[C@@H](O)[C@H](C)O2)[C@H](C)[C@@H](O[C@@H]2O[C@H](C)C[C@H](N(C)C)[C@H]2O)[C@](C)(OC)C[C@@H](C)C(=O)[C@H](C)[C@@H](O)[C@]1(C)O [CLARITHROMYCIN] |  | 0.057 (≈ 0.0762 µM) | 
20 | CC(=O)NCc1ccc(-c2csc(NC(=N)NCCc3ccccc3)n2)o1 | 71 | 0.13 (≈ 0.339 µM) | inhibition in vivo at 1 mg/kg (Rattus norvegicus): 24%
21 | COc1ccccc1CC/N=C(\N)Nc1nc(-c2cc(-c3ccccc3)c(CNC(C)=O)o2)cs1 |  | 9.47 (≈ 19.3 µM) | 
22 | COc1ccccc1CC/N=C(\N)Nc1nc(-c2cc(C)c(CNC(C)=O)o2)cs1 | 0 | 0.03 (≈ 0.0702 µM) | 
23 | CC(=O)NCc1ccc(-c2csc(NC(=N)NCCc3c[nH]cn3)n2)o1 |  | 31 (≈ 83 µM) | 
24 | COc1ccccc1CC/N=C(\N)Nc1nc(-c2ccc(CNC(C)=O)o2)cs1 | 67 | 0.052 (≈ 0.126 µM) | inhibition in vivo at 1 mg/kg (Rattus norvegicus): 54%
25 | BISMUTH SUBSALICYLATE |  |  | MIC (Bacteroides fragilis): 50 µg/mL; MIC (Clostridium perfringens [6]): > 100 µg/mL; MIC (Campylobacter jejuni): 7.4 µg/mL; MIC (Clostridioides difficile [7]): 50 µg/mL; MIC (Helicobacter pylori [5]): 8.7 µg/mL; MIC (Neisseria gonorrhoeae): 4.7 µg/mL; MIC (Neisseria meningitidis): 12.5 µg/mL
26 | CC(=O)NCc1ccc(-c2csc(NC(=N)NCCc3ccccc3NC(C)=O)n2)o1 |  | 4.1 (≈ 9.31 µM) | 
27 | CC(=O)NCc1ccc(-c2csc(NC(=N)NCc3ccccc3C)n2)o1 | 88 |  | 
28 | COc1ccc(C/N=C(\N)Nc2nc(-c3ccc(CNC(C)=O)o3)cs2)cc1 |  | 0.28 (≈ 0.701 µM) | 
29 | CC(=O)NCc1ccc(-c2csc(NC(=N)NCCc3ccccc3[N+](=O)[O-])n2)o1 | 66 | 0.14 (≈ 0.327 µM) | inhibition in vivo at 1 mg/kg (Rattus norvegicus): 39%
30 | CC(=O)NCc1ccc(-c2csc(NC(=N)NCc3ccccc3Cl)n2)o1 | 50 |  | 
31 | COc1cccc(C/N=C(\N)Nc2nc(-c3ccc(CNC(C)=O)o3)cs2)c1 | 28 |  | 
32 | CC(=O)NCc1ccc(-c2csc(NC(=N)NCCNc3ccccc3)n2)o1 |  | 1.79 (≈ 4.49 µM) | 
33 | Cc1ncc([N+](=O)[O-])n1CCO [METRONIDAZOLE] |  | 5.4 (≈ 31.6 µM) | 
34 | COc1cccc(CC/N=C(\N)Nc2nc(-c3ccc(CNC(C)=O)o3)cs2)c1 | 70 | 0.36 (≈ 0.871 µM) | inhibition in vivo at 1 mg/kg (Rattus norvegicus): 65%
35 | COc1ccccc1OCC/N=C(\N)Nc1nc(-c2ccc(CNC(C)=O)o2)cs1 |  | 2.5 (≈ 5.82 µM) | 
